Columns and labels:
[1] = biological target: T1, human alpha1,beta2,gamma2 GABAA receptor (Homo sapiens, UniProt P14867+P47870); test: Patch-clamp (Dynaflow) on HEK-293 cells expressing GABAA receptor alpha1,beta2,gamma2; assay type: cell-based; settings: for effect by itself (Baseline shift): absence of GABA
T1 construct: expressed in transfected cells
Source text: (§1) Assay for Testing GABAA Receptor Effects of 3Beta-Hydroxy-5Alpha-Pregnan-20-One on Human Alpha1,Beta,Gamma and Alpha4,Beta,Delta GABAA Receptor Subtype.
(§2) 2) in absence and in presence of the positive GABAA receptor modulating steroids Tetrahydrodeoxycorticosterone (THDOC) and 3alpha-hydroxy-5alpha-androstan-17-ol (3alpha-OH-adiol) by the Dynaflow™ system on HEK-293 cells. In these tests the protocol was optimized to be similar to the physiological conditions in the synaptic cleft.
(§3) HEK-293 cells, permanently transfected with the human alpha1,beta,gamma and alpha4,beta,delta GABAA receptor subtypes, were seeded at a density of 3×10^4/25 cm^2 in cellbind culture flask. The transfected cells were used for patch-clamp experiments 3 days after seeding. When using the cells for patch-clamp experiments the cells were washed twice with oxygen-bubbled extracellular (EC) solution (see below). About 5 mL EC was then added and the cells were kept in the incubator for about 15 minutes. After 15 minutes the cells came loose from the bottom of the flask and were separated by carefully sucking couple of times with a Pasteur pipette.
(§4) Dynaflow™ system with Resolve chip was used for patch-clamp experiments: The electrophysiological recordings from HEK-293 cells were performed under voltage-clamp conditions using patch-clamp technique and the Dynaflow™ system (Dynaflow Pro II Platform Zeiss Axiovert 25; Cellectricon AB, Sweden) with Resolve chips as application system.
(§5) Patch pipettes were pulled from borosilicate glass and polished to a resistance 2-5 MΩ when filled with suitable intracellular solution (IC) (pH was adjusted to 7.2) and immersed in bath solution (extracellular, EC) (pH is adjusted to 7.4). The recordings were made using an Axopatch 200B amplifier, a Digidata 1322A (Axon instruments, Foster city, USA). Data were acquired using the pCLAMP software sampled at 10 kHz, filtered at 2-10 kHz and analyzed with Clampfit (versions 9.0, both from Axon instruments, Foster city, USA). No higher series resistance than 20 MΩ between pipette and cell membrane was accepted. No series resistance compensation was used. The stability of series resistance was monitored repeatedly from the time course of capacitative transients during the experiments. The measured liquid-junction potential between EC and IC was subtracted in all data presented. All experiments were performed at room temperature (21-23° C.).
(§6) All steroids were dissolved to the concentration of 6 mM in DMSO. […] End solutions were the solutions added into the wells of the chip.
(§7) After compensating for the liquid junction potential a steady holding potential of −17 mV was used in all experiments. […] By using the holding potential of −17 mV and the intracellular solution with low chloride ion concentration the chloride ions flux into the cell when the receptors were activated.
(§8) The Dynaflow system allowed application of solutions for as short as 40 ms up to minutes in time.
(§9) In the experiments, THDOC and 3alpha-OH-adiol were used as the positive GABAA receptor modulating steroids.
(§10) Different incubation times were studied to achieve the optimal time for attain stable results and minimize the washout time.
(§11) Cell lines permanently expressing a functional human GABAA receptor was made in following steps. The GABAA receptor subunits alpha1, beta2 and gamma2L or alpha4, beta3 and delta including introduced Kozac sequences just before the start codons, were subcloned into mammalian expression vectors containing Geneticin, Hygromycin B, and Zeocin resistance, respectively.

[2] = biological target: T2, human alpha4,beta3,delta GABAA receptor (Homo sapiens, UniProt P28472+P48169); test: Patch-clamp (Dynaflow) on HEK-293 cells expressing GABAA receptor alpha4,beta3,delta; assay type: cell-based
T2 construct: expressed in transfected cells
Source text: as §1, §2, §3, §4, §5, §6, §7, §8, §9, §10, §11

[3] = 1 μM 3beta-hydroxy-5alpha-pregnan-20-one

T1 sequence (P14867 28-456): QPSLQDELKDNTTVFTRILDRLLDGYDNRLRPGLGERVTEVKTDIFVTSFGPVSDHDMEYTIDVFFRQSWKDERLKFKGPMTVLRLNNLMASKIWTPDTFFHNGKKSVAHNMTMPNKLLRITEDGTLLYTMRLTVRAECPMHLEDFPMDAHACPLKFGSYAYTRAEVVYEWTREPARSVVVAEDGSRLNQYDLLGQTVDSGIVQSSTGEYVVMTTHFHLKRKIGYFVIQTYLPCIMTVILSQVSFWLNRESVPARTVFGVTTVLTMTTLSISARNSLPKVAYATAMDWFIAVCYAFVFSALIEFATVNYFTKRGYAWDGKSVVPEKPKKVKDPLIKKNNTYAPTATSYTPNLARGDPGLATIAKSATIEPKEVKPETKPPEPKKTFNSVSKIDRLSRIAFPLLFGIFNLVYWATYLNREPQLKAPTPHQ
T1 sequence (P47870 25-512 limits assumed): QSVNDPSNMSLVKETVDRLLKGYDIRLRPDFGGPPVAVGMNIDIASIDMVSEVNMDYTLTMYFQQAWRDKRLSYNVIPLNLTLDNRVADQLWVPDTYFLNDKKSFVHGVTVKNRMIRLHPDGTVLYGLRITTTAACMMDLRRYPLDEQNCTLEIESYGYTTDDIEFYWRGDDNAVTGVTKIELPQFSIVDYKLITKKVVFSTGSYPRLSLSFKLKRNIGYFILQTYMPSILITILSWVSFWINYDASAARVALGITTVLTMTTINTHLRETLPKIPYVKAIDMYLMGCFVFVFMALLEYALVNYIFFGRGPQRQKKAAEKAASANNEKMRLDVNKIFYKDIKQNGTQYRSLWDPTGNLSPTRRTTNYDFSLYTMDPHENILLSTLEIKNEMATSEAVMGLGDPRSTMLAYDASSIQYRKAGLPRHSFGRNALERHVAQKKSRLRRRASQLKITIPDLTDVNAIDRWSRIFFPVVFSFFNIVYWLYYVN
T1 sequence (P18507 40-475 partner): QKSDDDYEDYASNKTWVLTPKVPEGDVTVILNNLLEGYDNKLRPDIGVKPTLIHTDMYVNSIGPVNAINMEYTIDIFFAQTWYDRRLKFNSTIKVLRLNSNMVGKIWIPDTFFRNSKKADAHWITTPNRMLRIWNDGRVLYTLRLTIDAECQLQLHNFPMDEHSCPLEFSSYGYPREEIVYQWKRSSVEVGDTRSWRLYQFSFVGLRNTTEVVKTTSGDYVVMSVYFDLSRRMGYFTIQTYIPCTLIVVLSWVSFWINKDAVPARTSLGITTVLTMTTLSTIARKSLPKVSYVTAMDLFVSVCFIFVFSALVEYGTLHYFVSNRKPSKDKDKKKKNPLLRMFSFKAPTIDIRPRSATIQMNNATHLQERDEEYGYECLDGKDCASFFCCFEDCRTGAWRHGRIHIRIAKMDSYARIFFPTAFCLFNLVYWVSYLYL
T2 sequence (P48169 36-554): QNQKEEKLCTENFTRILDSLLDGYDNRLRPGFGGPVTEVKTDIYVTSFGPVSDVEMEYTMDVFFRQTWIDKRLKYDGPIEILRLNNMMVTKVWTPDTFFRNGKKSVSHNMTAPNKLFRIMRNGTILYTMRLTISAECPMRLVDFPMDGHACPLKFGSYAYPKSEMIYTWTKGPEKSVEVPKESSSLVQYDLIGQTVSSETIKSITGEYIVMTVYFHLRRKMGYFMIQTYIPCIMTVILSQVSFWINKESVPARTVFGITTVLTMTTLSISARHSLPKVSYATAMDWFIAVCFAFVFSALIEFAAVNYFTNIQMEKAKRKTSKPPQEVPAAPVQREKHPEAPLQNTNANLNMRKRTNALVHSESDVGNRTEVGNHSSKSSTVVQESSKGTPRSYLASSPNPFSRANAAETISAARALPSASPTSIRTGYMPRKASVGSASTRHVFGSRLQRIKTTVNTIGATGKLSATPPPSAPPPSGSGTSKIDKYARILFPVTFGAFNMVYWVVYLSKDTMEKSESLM
T2 sequence (P28472 26-473): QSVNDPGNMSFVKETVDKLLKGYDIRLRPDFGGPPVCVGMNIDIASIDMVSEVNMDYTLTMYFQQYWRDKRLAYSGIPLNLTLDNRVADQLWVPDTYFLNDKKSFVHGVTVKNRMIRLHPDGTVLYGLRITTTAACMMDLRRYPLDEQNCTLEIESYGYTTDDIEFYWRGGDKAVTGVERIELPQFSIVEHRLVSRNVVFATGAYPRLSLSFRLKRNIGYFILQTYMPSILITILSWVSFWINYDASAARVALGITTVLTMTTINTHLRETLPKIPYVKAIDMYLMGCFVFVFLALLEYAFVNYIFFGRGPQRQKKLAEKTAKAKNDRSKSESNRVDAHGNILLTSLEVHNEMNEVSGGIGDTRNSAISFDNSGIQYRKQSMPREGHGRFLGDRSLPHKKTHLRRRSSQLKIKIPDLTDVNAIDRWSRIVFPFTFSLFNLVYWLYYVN
T2 sequence (O14764 17-452 partner limits assumed): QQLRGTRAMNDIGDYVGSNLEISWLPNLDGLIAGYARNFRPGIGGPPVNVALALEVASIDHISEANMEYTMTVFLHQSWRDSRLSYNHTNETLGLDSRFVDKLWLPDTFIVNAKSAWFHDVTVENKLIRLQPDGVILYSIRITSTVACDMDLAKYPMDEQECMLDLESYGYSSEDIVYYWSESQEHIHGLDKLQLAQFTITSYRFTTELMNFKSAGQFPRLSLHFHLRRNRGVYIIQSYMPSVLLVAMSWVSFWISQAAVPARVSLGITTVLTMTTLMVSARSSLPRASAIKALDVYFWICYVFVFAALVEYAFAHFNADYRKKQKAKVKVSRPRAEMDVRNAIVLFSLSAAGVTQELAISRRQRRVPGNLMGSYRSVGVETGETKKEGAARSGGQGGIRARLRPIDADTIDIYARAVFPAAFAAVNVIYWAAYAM

SMILES: C[C@]12CC[C@@H](O)C[C@H]1CC[C@@H]1[C@@H]2CC[C@]2(C)[C@@H](C(=O)CO)CC[C@@H]12 [THDOC, Tetrahydrodeoxycorticosterone]
- Emax, enhancement of GABA mediated current ([1]; 0.03-1 μM THDOC + 30 μM GABA): +115%
- EC50 ([1]; read-out: EC50, enhancement of GABA mediated current, 0.03-1 μM THDOC + 30 μM GABA): 70 nM
- Baseline shift (current response in absence of GABA) ([2]; 0.03 μM THDOC): +5 ± 3.3 pA
- Baseline shift (current response in absence of GABA) ([2]; 0.1 μM THDOC): +15 ± 9.5 pA
- Baseline shift (current response in absence of GABA) ([2]; 0.3 μM THDOC): +12 ± 7.9 pA
- Baseline shift (current response in absence of GABA) ([2]; 1 μM THDOC): +69 ± 35 pA
- Emax, enhancement of GABA mediated current response ([2]; THDOC + 3 μM GABA): 297%
- EC50 ([2]; read-out: EC50, enhancement of GABA mediated current response, THDOC + 3 μM GABA): 47 nM

SMILES: C[C@]12CC[C@@H](O)C[C@@H]1CC[C@@H]1[C@@H]2CC[C@]2(C)C(O)CC[C@@H]12 (stereo partly drawn) [Androstandiol, 3alpha-hydroxy-5alpha-androstan-17-ol]
- effect by itself (Baseline shift) ([1]; 3 μM androstandiol): +8 ± 3.6 pA
- effect by itself (Baseline shift) ([1]; 8 μM androstandiol): +13 ± 2.3 pA
- effect by itself (Baseline shift) ([1]; 10 μM androstandiol): +11 ± 1.5 pA
- effect by itself (Baseline shift) ([1]; 30 μM androstandiol): +24 ± 6.8 pA
- effect by itself (Baseline shift) ([1]; 100 μM androstandiol): +43 ± 5.7 pA
- Potency relative to THDOC (less potent) ([1]; enhancing the effect of GABA, 30 μM GABA): 48 times
- Baseline shift (current response in absence of GABA) ([2]; 3 μM androstandiol): +8 ± 3.6 pA
- Baseline shift (current response in absence of GABA) ([2]; 10 μM androstandiol): +13 ± 4.8 pA
- Potency at alpha4,beta3,delta relative to alpha1,beta2,gamma2 (higher) ([2]; enhancement of GABA-mediated current): 10 times

SMILES: CC(=O)[C@H]1CC[C@H]2[C@@H]3CC[C@H]4C[C@@H](O)CC[C@]4(C)[C@H]3CC[C@]12C [3beta-hydroxy-5alpha-pregnan-20-one]
- Antagonism of THDOC enhanced GABA effect (max, concentration-dependent experiment) ([1]; 1 μM 3beta-hydroxy-5alpha-pregnan-20-one + 30 μM GABA + 200 nM THDOC, n=10): −21±4.6%
- Effect on 8 μM Androstandiol + 30 μM GABA ([1]; 1 μM 3beta-hydroxy-5alpha-pregnan-20-one, phasic effect): −30 ± 1.7%
- Effect on 8 μM Androstandiol, baseline shift ([1]; 1 μM 3beta-hydroxy-5alpha-pregnan-20-one, tonic effect, without GABA): −33 ± 7.6%
- Imax, antagonism of THDOC effect ([1]; 0.1-1 μM 3beta-hydroxy-5alpha-pregnan-20-one + 30 μM GABA + 200 nM THDOC): −21%
- Antagonism of THDOC enhanced GABA effect (single dose) ([1]; single dose 1 μM + 30 μM GABA + 200 nM THDOC, n=6): −22.3±5.3%
- Effect on 0.6 μM Androstandiol + 3 μM GABA [2, 3]: −18 ± 2.0%
- Effect on 0.8 μM Androstandiol + 3 μM GABA [2, 3]: −22 ± 2.6%
- Effect by itself (current response) ([2]; 1 μM 3beta-hydroxy-5alpha-pregnan-20-one alone, N=11, NS vs EC solution): −0.4±0.3 pA
- Effect on 3 μM GABA response ([2]; 1 μM 3beta-hydroxy-5alpha-pregnan-20-one, N=11, NS): −6.7 ± 3.3%
- Effect on GABA alone (in words) ([2]; 1 μM 3beta-hydroxy-5alpha-pregnan-20-one, data not shown): without any significant effect
- Effect on 0.1 μM THDOC + 3 μM GABA ([2]; 1 μM 3beta-hydroxy-5alpha-pregnan-20-one, steady state): −26 ± 2.4%
- Effect on 0.1 μM THDOC alone baseline ([2]; 1 μM 3beta-hydroxy-5alpha-pregnan-20-one, without GABA): −43 ± 3.5%
